This is an account of results in US10053427B2, “Crystalline forms of cabozantinib phosphate and cabozantinib hydrochloride” (priority 2015, dated 2018).

The conditions of data set [1]: reported in WO2010/083414; cited from earlier work.
Data set [2] can be described thus: Aqueous solubility measurement. The data set is classed as physicochemical. Particulars: thermodynamic from solid; deionized water, shaking ca. 24 h, ambient temperature (ca. 22° C.). As to the method:
Each salt was individually slurried in deionized water and subjected to shaking for ca. 24 h at ambient temperature (ca. 22° C.). The resulting saturated solutions were filtered and analyzed by HPLC analysis. XRPD analysis was carried out on any solid retained after the solubility experiment.

Data set [3] in a line: Dynamic vapour sorption (DVS), water absorption. Particulars: between 20% and 70% RH. It is filed as physicochemical.
Procedure: Approximately 10-20 mg of sample was placed into a vapour sorption balance pan and loaded into a DVS-1 dynamic vapour sorption balance by Surface Measurement Systems. The sample was subjected to a ramping profile from 20-90% relative humidity (RH) at 10% increments, maintaining the sample at each step until a stable weight had been achieved (99.5% step completion). After completion of the sorption cycle, the sample was dried using the same procedure, but all the way down to 0% RH and finally taken back to the starting point of 20% RH. The weight change during the sorption/desorption cycles were plotted, allowing for the hygroscopic nature of the sample to be determined.
The nature of data set [4]: Karl Fischer coulometric titration (water content). It is filed as physicochemical. As to the method:
Ca. 10-20 mg of solid material was accurately weighed into a container and the weight noted. The solid was then manually introduced into the titration cell of a Mettler Toledo C30 Compact Titrator. The titration was initiated once the sample had fully dissolved in the cell. The vial was back-weighed after the addition of the solid and the weight of the added solid entered into the instrument. The water content was calculated automatically by the instrument as a percentage and the data printed.

For data set [5] the following is noted: humidity (75%) and high temperature (40° C.); reported in WO2010/083414; cited from earlier work.

Structures are written as SMILES. Counter-ions that a name gives are not always drawn.

For orientation: solubility means the concentration that dissolves in the medium under given conditions. A lower solubility goes with a poorly soluble substance.

Take `COc1cc2nccc(Oc3ccc(NC(=O)C4(C(=O)Nc5ccc(F)cc5)CC4)cc3)c2cc1OC` [(L)-malate salt]: the Hygroscopicity result in data set [1] is listed as “non-hygroscopic”.
In turn, `COc1cc2nccc(Oc3ccc(NC(=O)C4(C(=O)Nc5ccc(F)cc5)CC4)cc3)c2cc1OC.Cl` [Cabozantinib hydrochloride Form A-1, N-{4-[(6,7-dimethoxy-4-quinolinyl)oxy]phenyl}-N′-(4-fluorophenyl)-1,1-cyclopropanedicarboxamide hydrochloride] displayed a solubility at 24 h in data set [2] of 210 µg/mL. For the same compound, the “Water absorption (DVS)” value in data set [3] (DVS) turned out to be 0.07 weight-%. In addition, in data set [3], the “Hygroscopicity (DVS)” value was “non hygroscopic”.
For the compound `COc1cc2nccc(Oc3ccc(NC(=O)C4(C(=O)Nc5ccc(F)cc5)CC4)cc3)c2cc1OC.O=P(O)(O)O` [Cabozantinib phosphate Form A, N-{4-[(6,7-dimethoxy-4-quinolinyl)oxy]phenyl}-N′-(4-fluorophenyl)-1,1-cyclopropanedicarboxamide phosphate], the solubility at 24 h in data set [2] came out at 90 µg/mL. The “KF analysis water content” value in data set [4] is 0.5 weight-%. In data set [3] (DVS), this compound came in with a Water absorption of 1%.
Take `COc1cc2nccc(Oc3ccc(NC(=O)C4(C(=O)Nc5ccc(F)cc5)CC4)cc3)c2cc1OC` [cabozantinib hydrochloride salt]: the “Physical stability (hydrate formation / phase change)” value in data set [5] was “Possible hydrate formation and a phase change”.
